Measurements: patent publication US5162328A, “N-[3-[2-(1H-imidazol-1-yl)ethoxy]phenyl]-4-(2-thienyl)-2-pyrimidinamine and pharmacologically acceptable salts” (American Cyanamid Company, priority 1991, dated 1992)
“And” between values parts separate entries of the source, which are not always exact repeats. Identical values can stand only once.

What was measured:
[1] = tested on: immunologically stimulated human basophils; assay: Inhibition of histamine release from immunologically stimulated human basophils; assay type: cell-based; conditions: for IC50: Homo sapiens
Excerpt: The bronchospasm of allergic asthma is a consequence of the release of mediators, such as histamine and slow-reacting substances from mast cells. The role of mediator release in the induction of an asthmatic attack has been fully reviewed and documented; see […]. and Austen, K. F., Bronchial Asthma Mechanisms and Therapeutics, E. B. Weiss, Editor, Little, Brown and Company, Boston, 163, (1976); Lichtenstein, L. M., Asthma-Physiology, Immunopharmacology and Treatment, Second International Symposium, L. M. Lichtenstein and K. F. Austen, Editors, Academic Press, New York, 51, (1979); and Bell, S. C., et al., Annular Reports in Medicinal Chemistry, 14, 51, H. J. Hess, Editor, Academic Press, New York, (1979). The novel compounds of this invention have been tested by the procedure of Lichtenstein, L. M. and Osler, A. G., J. Exp. […] Dissolve 140.3 g of sodium chloride, 7.45 g of Trizma-Tris Pre-Set, Reagent Grade, pH 7.6 at 25° C. (Sigma Chemical Co.) in sufficient water to give a final volume of 2 liters. (Sigma chemical Co.) (30 mg/ml) Made to 0.075M and 0.5M respectively, with calcium chloride dihydrate and magnesium chloride hexahydrate. A 10 ml portion of 10× Tris Buffer and 1.0 ml of human albumin are diluted to 100 ml with water. A 10 ml portion of 10× Tris Buffer, 1.0 ml of human albumin, 0.8 ml of calcium stock and 0.2 ml of magnesium stock are diluted to 100 ml with water. Behring Diagnostics (Generally used at 10 μg protein/ml final concentration). Strength 1:100 (w:v) allergenic extract, Hollister-Stier Labs. Generally this is diluted 1:1000 to 1:10,000 (considering the vial as stock). Interdermal solutions or intramuscular preparations for hyposensitization, Hollister-Stier Labs. The final concentrations used are on the order of 1 PNU/ml. Using four 20 ml heparinized tubes, […] of blood are withdrawn from subjects with known histamine release to anti-IgE, ragweed antigen or other specific allergen. These 80 ml of blood are mixed with 20 ml of saline containing 0.6 g of dextrose and 1.2 g of dextran. The blood is allowed to sediment at room temperature in two 50 ml polycarbonate centrifuge tubes until a sharp interface develops between the red cells and plasma (60-90 minutes). The plasma, containing the leukocytes, (top) layer from each tube, is withdrawn by pipet and transferred to 50 ml polycarbonate tubes. The plasma is centrifuged for 8 minutes at 110× G at 4° C. The supernatant is carefully poured off as completely as possible and the cell button is resuspended in 2-3 ml of Tris-A buffer using a siliconized Pasteur pipet. The resuspension is accomplished by drawing the liquid gently in an out of the pipet, with the tip below the liquid until an even suspension of cells is obtained. […]

[2] = tested on: passive cutaneous anaphylaxis lesions in the rat; assay: Rat Passive Cutaneous Anaphylaxis Assay (PCA); assay type: in vivo, rat (male Wistar strain); conditions: for Lesion Area (Low IgE) / Lesion Area (High IgE): mean ± SD
Experimental: Solutions made by dissolving 0.50 g in 100 ml of normal saline. Mouse monoclonal IgE (ICN Biochemicals) clone SPE-7 directed against DNP is subdivided into 50 ul aliquots and stored at -70° C. DNP-ovalbumin is made by reacting DNP sulfonic acid with ovalbumin dissolved in saline overnight at room temperature. The resulting solution is dialyzed extensively at 4 C to remove unreacted DNPsulfonic acid and stored as 1 mL aliquots of 100 mg/ml at -70° C. Male Wistar strain rats, certified viral free, weighing 250-300 g are obtained from Hilltop Laboratory Animals and housed, in accordance with AALAC standards, on site for at least one week before use. Forty-eight hours before challenge the rats are shaved on the dorsal surfaces and returned to the cages. Twenty-four hours before challenge the rats are given intradermal injections of 0.1 mL, one on each flank, of saline containing IgE at concentrations ranging from 1000 to 250 ng/mL. These injections give a local dose of 100 to 25 ng IgE. The IgE binds to specific receptors on mast cells in the skin. […] To the Evan's blue dye is added sufficient DNP-ovalbumin to make a 1 mg/ml solution. This allergen containing dye is injected intravenously via a tail vein into the rats at 10 ml/Kg. The Evans' blue binds to plasma albumin and remains in the vascular space under conditions of normal capillary permeability. The allergen, which can diffuse into the extravascular space, binds to the IgE on the surface of the cutaneous mast cells and initiates the immediate hypersensitivity response which leads to the release of histamine by intracellular granules of the mast cell. The histamine causes an increase in capillary permeability which allows plasma proteins including the dye tagged albumin to diffuse into the extracellular space resulting in a blue spot in the skin. The size of the lesion is proportional to the amounts of mediators released. This process reaches an optimum in 30 minutes. Thirty minutes after challenge the rats are euthanized by CO2. The skin is reflected from the back and the lesion areas estimated as the product of the largest diameter of the bluespot and the diameter perpendicular to it. A compound which is a mediator release inhibitor will reduce the spot area. The effectiveness of the compounds is determined by Analysis of Variance of the lesion areas grouped by IgE dose and compound. Compounds are considered active at the P<0.05 level. Table II contains the results of the experiments expressed as the areas of the lesions in mm^2. The control lesions for these experiments are also listed. Because more than one compound at a time is tested, some of the control values are repeated in the table. Table III contains the data expressed as a % of the appropriate control.

[3] = 0.5 mg/kg PO 2 hrs, IgE 50 ng/site
[4] = compared with the two compounds of U.S. Pat. No. 4,788,195

SMILES | IC50 [1] | Lesion Area (Low IgE) ([2]; 0.5 mg/kg PO 2 hrs, IgE 25 ng/site, dihydrochloride) | Lesion Area (High IgE) [2, 3] | Lesion Area (High IgE) ([2]; 0.5 mg/kg PO 2 hrs, IgE 100 ng/site, dihydrochloride) | % CONTROL (lesion area) ([2]; 0.5 mg/kg PO @ 2 hrs, dihydrochloride) | Lesion Area (Low IgE) ([2]; 1.0 mg/kg PO 2 hrs, IgE 25 ng/site) | Lesion Area (High IgE) ([2]; 1.0 mg/kg PO 2 hrs, IgE 50 ng/site) | % CONTROL (lesion area) ([2]; 1 mg/kg PO @ 2 hrs) | Lesion Area (Low IgE) ([2]; 0.25 mg/kg PO 2 hrs, IgE 33 ng/site) | Lesion Area (High IgE) ([2]; 0.25 mg/kg PO 2 hrs, IgE 50 ng/site) | % CONTROL (lesion area) ([2]; 0.25 mg/kg PO @ 2 hrs) | Lesion Area (Low IgE) ([2]; 0.5 mg/kg PO 2 hrs, IgE 33 ng/site) | % CONTROL (lesion area) ([2]; 0.5 mg/kg PO @ 2 hrs) | Lesion Area (Low IgE) ([2]; 2.5 mg/kg PO 2 hrs, IgE 25 ng/site) | Lesion Area (High IgE) ([2]; 2.5 mg/kg PO 2 hrs, IgE 100 ng/site) | % CONTROL (lesion area) ([2]; 2.5 mg/kg PO @ 2 hrs) | activity in basophil histamine release assay (in words) [1, 4] | activity in rat PCA test (in words) [2, 4]
Cc1cc(Nc2nccc(-c3ccncc3)n2)ccc1N.Cl.Cl [Compound 2, 2-methyl-N^4-[4-(4-pyridinyl)-2-pyrimidinyl]-1,4-benzenediamine dihydrochloride, reference compound] | 900 nM | 135 ± 20 mm^2 and 97 ± 7 mm^2 and 105 ± 12 mm^2 | 157 ± 15 mm^2 | 217 ± 35 mm^2 and 362 ± 62 mm^2 | 113.6% and 74.6% and 81% | 10 ± 15 mm^2 | 123 ± 16 mm^2 | 57.9% | – | – | – | – | – | – | – | – | – | –
CCN(CC)CCOc1ccc(Nc2nccc(-c3ccncc3)n2)cc1.Cl.Cl [Compound 3, N-[4-[2-(diethylamino)ethoxy]phenyl]-4-(4-pyridinyl)-2-pyrimidinamine dihydrochloride, reference compound] | 200 ± 20 nM | – | 149 ± 22 mm^2 | – | – | – | – | – | 108 ± 26 mm^2 | 215 ± 24 mm^2 | 45.1% | 68 ± 44 mm^2 | 28.6% | 54 ± 38 mm^2 | 105 ± 47 mm^2 | 33.7% | – | –
c1cc(Nc2nccc(-c3cccs3)n2)cc(OCCn2ccnc2)c1 [N-[3-[2-(1H-imidazol-1-yl)ethoxy]phenyl]-4-(2-thienyl)-2-pyrimidinamine] | – | – | – | – | – | – | – | – | – | – | – | – | – | – | – | – | essentially equivalent high activity | essentially equivalent high activity
